Test results published in paper PMC10269895 (Microbiology Spectrum, 2023).

Columns and labels:
[1] = In vivo tolerability study in uninfected mice; parameters: species or system Swiss mice; settings: 30 mg/kg single i.v. bolus in NaCl (0.9%)
Procedure: We first performed a tolerability study in uninfected mice by injecting GE81112A at up to 30 mg/kg, formulated in NaCl (0.9%), via intravenous (i.v.) bolus administration.
All animal studies were performed in accordance with relevant guidelines and regulations. A 30 mg/kg dose of GE81112A, formulated in 0.9% NaCl, was administered to noninfected Swiss mice (n = 3), using a single i.v. bolus. Adverse events and animal weights were monitored for 24 h after administration.

[2] = test system: CaCo2/TC7 cells; assay: Cellular permeability assay using the CaCo2/TC7 cell line; type: in vitro ADME, human; settings: predicted from CaCo2/TC7 permeability
Procedure: (§1) CaCo2/TC7 cells were seeded in a Falcon 24-well multiwell insert system with 1.0-μm-pore high-density polyethylene terephthalate (PET) membrane plates, at a density of 60,000 cells per well in DMEM (high glucose, with Glutamax I, without HEPES, with 20% fetal calf serum [FCS], and with penicillin-streptomycin). The cells were incubated for at least 21 days to ensure complete differentiation, polarization, and formation of a tight barrier layer. Permeability assays were performed in Hanks’ balanced salt solution (HBSS) with sodium taurocholate (186 μM), HEPES (10 mM), and bovine serum albumin (BSA) (0.5% [wt/vol]), adjusted to pH 7.4 with sodium hydroxide (1 N). GE81112A at 1 and 20 μM was assayed for 120 min in the apical-to-basolateral direction with an apical pH of 7.4 and a basolateral pH of 7.4, without a BSA gradient (0.5%) on either side. After the incubation period, apical and basolateral concentrations of GE81112A were determined using liquid chromatography-tandem mass spectrometry (LC-MS/MS).

[3] = as above; type: in vitro ADME, human; settings: human, Caco-2; 1 or 20 μM, apical-to-basolateral, 120 min, pH 7.4; read-out: Apparent permeability
Procedure: as §1

[4] = Solubility in 0.9% NaCl solution; type: physicochemical; settings: sodium chloride solution (0.9%)
Procedure: (ii) Solubility in 0.9% NaCl solution. To obtain a crystal-like form of the compound, GE81112A was dissolved in water followed by freeze-drying. Afterwards, 510 μg GE81112A was transferred to a glass vial with a microinsert, and 50 μL NaCl (0.9%) was added.

[5] = test system: primary rat hepatocytes; assay: Cytotoxicity (CellTiter-Glo ATP and neutral red uptake); type: cell-based
Procedure: The toxicity of GE81112A toward human hepatocellular carcinoma HepG2 HB-8065 (ATCC) cells and freshly isolated primary Sprague-Dawley rat hepatocytes (Charles River) was assessed by using the CellTiter-Glo ATP-monitoring kit (Promega) and by quantifying the ability to store the dye neutral red (neutral red uptake [NRU] solution; Sigma-Aldrich, St. Louis, MO, USA). The assay was conducted in 96-well microtiter plates in a test volume of 200 μL. GE81112A was tested in an 8-fold 1:2 dilution series with a final concentration range of […]. HepG2 cells or primary hepatocytes were maintained at 37°C in 5% CO2 in DMEM-F-12 medium containing 1% nonessential amino acids, 1% sodium pyruvate, and 10% heat-inactivated FCS. Prior to each test, 100 μL of culture medium was added to each well (each containing about 20,000 cells), and the plates were incubated for 16 h as described above. GE81112A was diluted in culture medium to obtain appropriate concentrations and was added to the wells as six replicates. […] After incubation for 24 h as described above, cell viability was calculated either by cell lysis and subsequent luminometric quantification of the ATP concentration in each sample or by measurement of the amount of neutral red taken up by the cells. NRU was measured at 540 nm (Tecan Genios Pro) after 3 h of incubation with NRU solution and subsequent cell lysis. […]

[6] = Hepatic in vitro CLint in primary plated hepatocytes; type: in vitro ADME, human
Procedure: For hepatic in vitro CLint studies, primary cultures of cryopreserved human or animal species hepatocytes were seeded at a density of 200,000 cells per well and cultured overnight in collagen-coated 48-well plates in modified Ham’s F-12/William’s E medium. Disappearance kinetics of 5 μM GE81112A were sampled over a 24-h period. Dextromethorphan, midazolam, phenacetin, and tolbutamide (5 μM each) were used as reference compounds. Acetonitrile was used to terminate the incubation, and samples were centrifuged at 2,000 × g for 10 min after the addition of an appropriate internal standard. Supernatants were separated by LC using an AERIS peptide XB-C18 column (3.6 μm, 50 by 2.1 mm; Phenomenex, Aschaffenburg, Germany) with the following gradient of buffer A (water) and buffer B (acetonitrile): 0 to 5 min, 95% buffer A; 20 to 25 min, 5% buffer A. Both solvents were supplemented with 0.1% formic acid. The remaining parent peptide was quantified by LC-MS/MS using a Q Exactive hybrid quadrupole-Orbitrap device (Thermo Fisher Scientific). In vitro hepatic CLint was calculated as dose/area under the concentration-time curve from 0 to 24 h (AUC0–24), where dose is the concentration of GE81112A determined in the time zero sample and classified using reference compounds for low, moderate, or high CLint.

[7] = Plasma stability; type: in vitro ADME; settings: for Degradation: after 4 h
Procedure: For plasma clearance, peptides were dissolved as 1 mM stock solutions in sterile deionized water and incubated at 37°C in 500 μL plasma derived from different species (human, mouse, and rat) at a final concentration of 5 μM. At different time points (0, 1, and 4 h), 100-μL samples were transferred to 500 μL ethanol containing 0.5% (vol/vol) ammonia, and plasma proteins were precipitated for 20 min at 1,735 × g. Each 10-μL supernatant sample was separated on a Triart C18 column (1.9 μm, 20 by 2 mm; YMC, Kyoto, Japan) with an ascending acetonitrile gradient in water (supplemented with 0.1% formic acid), at a flow rate of 500 μL/min. Samples were analyzed in triplicate by LC-MS/MS as above, and the stability of the parent peptides was evaluated based on the comparison of blank samples with incubated samples.

NC(=O)OC[C@@H](O)C[C@H](NC(=O)[C@H]1NCCC[C@H]1O)C(=O)N[C@@H](Cc1c[nH]cn1)C(=O)N[C@H](C(=O)O)[C@H](O)c1cnc(Cl)[nH]1 [GE81112A]
Tolerability (signs of toxicity or adverse effects) [1]: did not show any sign of toxicity or adverse effects
Absorption in the human intestine (predicted) [2]: low
Papp at 120 min [3]: 0.028 to 0.316 ×10⁻⁶ cm/s
solubility [4]: > 500 µg/mL
No observed effect concentration (NOEC) ([5]; 24 h, highest concentration with cell viability of >80%): 15.6 µM
Overview finding: Cytotoxicity (rat hepatocytes/HepG2 cells) ([5]; Table 3 summary rating): +/− (to be monitored)
Intrinsic clearance (CLint) ([6]; 5 μM, classified as low): 0.01 mL/(h × 1 million cells)
Directly glucuronic acid-conjugated metabolites ([6]; human primary plated hepatocytes): not observed
metabolised at 1 h, 1 μM ([7]; human blood plasma, 37°C, 1 h, read-out: Hydrolysis): 3%
metabolised at 4 h, 1 μM ([7]; human blood plasma, 37°C, 4 h, read-out: Hydrolysis): 27%
Degradation ([7]; mouse blood plasma): No degradation
Degradation ([7]; rat blood plasma): No degradation
